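Tested at 5 concentrations; 48 h exposure; 96-well plates; endpoints linearly interpolated, else capped at highest concentration. GI50 is the concentration that inhibits growth by half.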 Active and inactive are the calls of the source. No stated cut-off is given here; in the data, active = GI50 up to about 1.1 µM and inactive = higher.
Experiments:
Test in all cases: inhibition of tumour cell growth, NCI panel, 48 h
[1] = system: HCT-15
[2] = system: SW-620
[3] = system: SF-539
[4] = system: SK-OV-3
[5] = system: A498
[6] = system: UO-31
[7] = system: M14
[8] = system: SK-MEL-5
[9] = system: RXF 393
[10] = system: 786-0
[11] = system: SNB-19
[12] = system: SK-MEL-2
[13] = system: SF-268
[14] = system: TK-10
[15] = system: HL-60
[16] = system: OVCAR-5
[17] = system: NCI-H226
[18] = system: HOP-92

SMILES | GI50 [1] [µM] | GI50 [2] | GI50 [3] | GI50 [4] | GI50 [5] | GI50 [6] | GI50 [7] | GI50 [8] | GI50 [9] | GI50 [10] | GI50 [11] | GI50 [12] | GI50 [13] | GI50 [14] | GI50 [15] | GI50 [16] | GI50 [17] | GI50 [18]
CC1=NN(c2ccccc2)C(=O)/C1=C\c1ccc([N+](=O)[O-])cc1 | 29.6 | 30.3 µM (inactive) | 22.4 µM (inactive) | 24.1 µM (inactive) | 11.4 µM (inactive) | 32.3 µM (inactive) | 30.8 µM (inactive) | 22.4 µM (inactive) | 19.5 µM (inactive) | 29.1 µM (inactive) | 30.5 µM (inactive) | 21.9 µM (inactive) | 38.6 µM (inactive) | 48.8 µM (inactive) | 23.3 µM (inactive) | 24.5 µM (inactive) |  | 
C=C1CCC2(C(C)=O)COC1(C)O2 (stereo not drawn) | > 100 | > 100 µM (inactive) | > 100 µM (inactive) | > 100 µM (inactive) |  | > 100 µM (inactive) | > 100 µM (inactive) | > 100 µM (inactive) | > 10 µM (inactive) | > 100 µM (inactive) | > 100 µM (inactive) |  |  | > 100 µM (inactive) | > 100 µM (inactive) |  | > 100 µM (inactive) | 
O=C1c2ccccc2C(=O)C12CCc1ccccc12 | > 100 | > 100 µM (inactive) |  | > 100 µM (inactive) |  | > 100 µM (inactive) | > 100 µM (inactive) |  | > 100 µM (inactive) | > 100 µM (inactive) |  |  | > 100 µM (inactive) | > 100 µM (inactive) | 23.6 µM (inactive) |  |  | > 100 µM (inactive)
Cn1cc(NC(=O)c2cc(NC(=O)CCCCCCCCCC(=O)Nc3cc(C(=O)Nc4cc(C(=O)NCCC(=N)N)n(C)c4)n(C)c3)cn2C)cc1C(=O)NCCC(=N)N | 39.3 | 32 µM (inactive) | 37.9 µM (inactive) | 92 µM (inactive) |  | 53.5 µM (inactive) | 23.1 µM (inactive) | 14.7 µM (inactive) | 32.1 µM (inactive) | 29.4 µM (inactive) | 30.8 µM (inactive) | 29.3 µM (inactive) | 21.8 µM (inactive) | 22.7 µM (inactive) |  | 32.7 µM (inactive) | > 100 µM (inactive) | 16.4 µM (inactive)
CCOP12(OCC)NC(=O)OC1(C(F)(F)F)c1ccccc1O2 (stereo not drawn) | > 100 |  | > 100 µM (inactive) | > 100 µM (inactive) |  | > 100 µM (inactive) | > 100 µM (inactive) | > 100 µM (inactive) | > 100 µM (inactive) | > 100 µM (inactive) | > 100 µM (inactive) | > 100 µM (inactive) | > 100 µM (inactive) | > 100 µM (inactive) | > 100 µM (inactive) |  | > 100 µM (inactive) | 
O=S(O)CCCCCSSCCCCSSCCCCCS(=O)O | > 100 | > 100 µM (inactive) | > 100 µM (inactive) | > 100 µM (inactive) | > 100 µM (inactive) | 85.3 µM (inactive) | > 100 µM (inactive) | > 100 µM (inactive) | > 100 µM (inactive) | > 100 µM (inactive) | > 100 µM (inactive) | > 100 µM (inactive) | > 100 µM (inactive) | > 100 µM (inactive) |  | > 100 µM (inactive) |  | > 100 µM (inactive)
CC1C[C@H](OC(N)=O)C(C)CC1=O (stereo partly drawn) | > 100 | > 100 µM (inactive) | > 100 µM (inactive) | > 100 µM (inactive) | > 100 µM (inactive) | > 100 µM (inactive) | > 100 µM (inactive) | > 100 µM (inactive) | > 100 µM (inactive) | > 100 µM (inactive) | > 100 µM (inactive) | > 100 µM (inactive) | > 100 µM (inactive) | > 100 µM (inactive) | > 100 µM (inactive) | > 100 µM (inactive) |  | 30.2 µM (inactive)
